Measurements published in patent US7074789B2, “Kinase inhibitors” (Amgen Inc., priority 1999, dated 2006).
One block for each compound: values may come before it.

Legend:
Assay type in all cases: biochemical
[1] = target: T1, AKT (Homo sapiens, UniProt Q9Y243); assay: Kinase inhibition assay (33P transfer), AKT; details: Table 2, kinase inhibition class; read-out: AKT3-1
T1 construct: Kinases are expressed as either kinase domains or full length constructs; made in house
Outline: (§1)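 Kinase domains or full-length kinases, GST- or His-tagged and expressed in E. coli or baculovirus/High Five cells, transferred 33PO4 from ATP onto plate-bound poly(Glu,Tyr) 4:1 or poly(Arg,Ser) 3:1. After incubation, plates were washed with 0.5% phosphoric acid and counted by liquid scintillation.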

[2] = target: T2, Zap-70 (Homo sapiens, UniProt P43403); assay: Kinase inhibition assay (33P transfer), Zap-70; details: read-out: Zap-1
T2 construct: Kinases are expressed as either kinase domains or full length constructs; made in house
T2 sequence (P43403 1-619): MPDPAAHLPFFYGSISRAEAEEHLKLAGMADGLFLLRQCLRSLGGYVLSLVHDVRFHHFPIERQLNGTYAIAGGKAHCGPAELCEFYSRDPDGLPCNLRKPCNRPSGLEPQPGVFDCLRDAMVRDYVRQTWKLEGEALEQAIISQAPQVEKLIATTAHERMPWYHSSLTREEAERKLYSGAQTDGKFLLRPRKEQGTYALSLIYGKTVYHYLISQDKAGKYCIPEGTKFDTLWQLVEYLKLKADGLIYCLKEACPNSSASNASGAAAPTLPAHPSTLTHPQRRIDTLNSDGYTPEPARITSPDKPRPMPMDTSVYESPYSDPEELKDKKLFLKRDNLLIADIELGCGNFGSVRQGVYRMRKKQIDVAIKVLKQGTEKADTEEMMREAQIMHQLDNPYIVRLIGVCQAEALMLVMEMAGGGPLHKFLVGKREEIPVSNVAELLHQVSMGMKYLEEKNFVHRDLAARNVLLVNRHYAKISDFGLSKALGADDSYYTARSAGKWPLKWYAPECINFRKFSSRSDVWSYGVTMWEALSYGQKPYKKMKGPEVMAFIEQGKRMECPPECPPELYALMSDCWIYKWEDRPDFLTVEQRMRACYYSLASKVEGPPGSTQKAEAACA
Outline: as §1

[3] = target: T3, Lck (Homo sapiens, UniProt P06239); assay: Kinase inhibition assay (33P transfer), Lck; details: read-out: Lck-1
T3 construct: Kinases are expressed as either kinase domains or full length constructs; made in house
Outline: as §1

[4] = target: T4, Kdr (Homo sapiens, UniProt P35968); assay: Kinase inhibition assay (33P transfer), Kdr; details: read-out: KDR-1
T4 construct: Kinases are expressed as either kinase domains or full length constructs; made in house
Outline: as §1

[5] = target: T5, PDGFRB (Homo sapiens, UniProt P09619); assay: Kinase inhibition assay (33P transfer), PDGFRB; details: read-out: PDGFRB-1
T5 construct: Kinases are expressed as either kinase domains or full length constructs; made in house

[6] = target: T6, IGFR-1 (Homo sapiens, UniProt P08069); assay: Kinase inhibition assay, IGFR-1 (Table 2); details: Table 2, kinase inhibition class
T6 construct: Kinases are expressed as either kinase domains or full length constructs; made in house

[7] = target: T7, c-Met (Homo sapiens, UniProt P08581); assay: Kinase inhibition assay (33P transfer), c-Met; details: Table 2, kinase inhibition class; read-out: Met-1
T7 construct: Kinases are expressed as either kinase domains or full length constructs; made in house
Outline: (§2)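 Using immobilised substrate copolymers (poly(Glu,Tyr) 4:1; poly(Arg,Ser) 3:1) and [33P]ATP, purified fusion kinases were allowed to react; plates were then rinsed in 0.5% phosphoric acid and counted in a scintillation detector. Half-maximal inhibition of label transfer defines IC50.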

[8] = target: T8, ErbB2 (Homo sapiens, UniProt P04626); assay: Kinase inhibition assay (33P transfer), ErbB2; details: read-out: ErbB2-2
T8 construct: Kinases are expressed as either kinase domains or full length constructs; made in house
Outline: as §2

[9] = target: T9, Itk (Homo sapiens, UniProt Q08881); assay: Kinase inhibition assay (33P transfer), Itk; details: read-out: Itk-1
T9 construct: Kinases are expressed as either kinase domains or full length constructs; made in house
T9 sequence (Q08881 1-620): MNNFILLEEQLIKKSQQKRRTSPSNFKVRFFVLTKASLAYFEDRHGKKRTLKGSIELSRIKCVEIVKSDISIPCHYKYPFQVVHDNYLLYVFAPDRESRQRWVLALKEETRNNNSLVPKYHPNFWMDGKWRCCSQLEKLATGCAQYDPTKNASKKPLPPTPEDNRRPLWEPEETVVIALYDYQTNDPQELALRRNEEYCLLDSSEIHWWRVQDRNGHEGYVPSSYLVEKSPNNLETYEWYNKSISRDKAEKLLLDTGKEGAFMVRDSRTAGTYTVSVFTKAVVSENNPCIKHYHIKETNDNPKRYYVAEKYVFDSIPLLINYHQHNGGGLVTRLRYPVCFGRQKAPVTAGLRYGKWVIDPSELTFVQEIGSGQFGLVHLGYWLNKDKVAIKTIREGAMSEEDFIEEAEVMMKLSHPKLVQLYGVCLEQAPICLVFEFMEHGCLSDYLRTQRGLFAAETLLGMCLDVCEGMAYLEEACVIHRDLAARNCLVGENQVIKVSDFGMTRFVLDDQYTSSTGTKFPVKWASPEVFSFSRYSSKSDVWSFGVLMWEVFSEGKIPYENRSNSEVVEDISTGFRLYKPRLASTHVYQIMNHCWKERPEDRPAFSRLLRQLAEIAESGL
Outline: as §2

[10] = target: T10, EGFR (Homo sapiens, UniProt P00533); assay: Kinase inhibition assay (33P transfer), EGFR; details: Table 2, kinase inhibition class; read-out: EGFR-1
T10 construct: Kinases are expressed as either kinase domains or full length constructs; made in house
Outline: as §2

T6 sequence (P08069 31-1367): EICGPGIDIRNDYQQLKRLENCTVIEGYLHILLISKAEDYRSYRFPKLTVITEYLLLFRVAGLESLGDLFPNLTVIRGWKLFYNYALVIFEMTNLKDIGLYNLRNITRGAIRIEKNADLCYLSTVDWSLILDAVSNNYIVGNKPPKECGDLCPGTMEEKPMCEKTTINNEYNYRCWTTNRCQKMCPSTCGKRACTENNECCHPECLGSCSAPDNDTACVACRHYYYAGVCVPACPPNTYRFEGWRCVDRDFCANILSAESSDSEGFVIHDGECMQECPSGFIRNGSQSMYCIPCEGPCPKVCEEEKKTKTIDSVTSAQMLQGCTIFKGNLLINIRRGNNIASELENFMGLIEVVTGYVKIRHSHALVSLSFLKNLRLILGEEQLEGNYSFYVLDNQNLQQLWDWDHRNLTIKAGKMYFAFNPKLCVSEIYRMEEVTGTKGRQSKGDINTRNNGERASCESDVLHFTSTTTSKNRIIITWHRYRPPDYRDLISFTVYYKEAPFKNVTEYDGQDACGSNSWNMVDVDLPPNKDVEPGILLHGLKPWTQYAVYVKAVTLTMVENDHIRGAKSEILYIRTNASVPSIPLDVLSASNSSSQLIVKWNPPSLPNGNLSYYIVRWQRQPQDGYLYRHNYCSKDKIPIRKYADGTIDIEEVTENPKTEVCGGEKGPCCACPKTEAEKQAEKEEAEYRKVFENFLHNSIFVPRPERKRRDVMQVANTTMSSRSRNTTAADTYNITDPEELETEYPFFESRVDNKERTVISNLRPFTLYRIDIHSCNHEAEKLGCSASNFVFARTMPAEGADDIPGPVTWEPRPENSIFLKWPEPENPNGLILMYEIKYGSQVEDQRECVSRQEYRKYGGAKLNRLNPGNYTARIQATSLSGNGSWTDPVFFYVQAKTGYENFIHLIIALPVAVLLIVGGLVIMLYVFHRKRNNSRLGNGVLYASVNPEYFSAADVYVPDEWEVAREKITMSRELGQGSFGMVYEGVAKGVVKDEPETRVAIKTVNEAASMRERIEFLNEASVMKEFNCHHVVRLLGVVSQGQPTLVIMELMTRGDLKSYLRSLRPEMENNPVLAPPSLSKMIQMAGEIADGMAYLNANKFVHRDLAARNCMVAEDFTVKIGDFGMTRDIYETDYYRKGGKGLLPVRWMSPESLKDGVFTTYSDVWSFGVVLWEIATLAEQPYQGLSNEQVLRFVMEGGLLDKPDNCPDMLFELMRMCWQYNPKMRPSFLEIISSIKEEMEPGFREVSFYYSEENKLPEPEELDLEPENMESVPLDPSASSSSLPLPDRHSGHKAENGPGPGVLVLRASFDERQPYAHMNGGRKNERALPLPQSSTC
T10 sequence (P00533 25-1210, species assumed): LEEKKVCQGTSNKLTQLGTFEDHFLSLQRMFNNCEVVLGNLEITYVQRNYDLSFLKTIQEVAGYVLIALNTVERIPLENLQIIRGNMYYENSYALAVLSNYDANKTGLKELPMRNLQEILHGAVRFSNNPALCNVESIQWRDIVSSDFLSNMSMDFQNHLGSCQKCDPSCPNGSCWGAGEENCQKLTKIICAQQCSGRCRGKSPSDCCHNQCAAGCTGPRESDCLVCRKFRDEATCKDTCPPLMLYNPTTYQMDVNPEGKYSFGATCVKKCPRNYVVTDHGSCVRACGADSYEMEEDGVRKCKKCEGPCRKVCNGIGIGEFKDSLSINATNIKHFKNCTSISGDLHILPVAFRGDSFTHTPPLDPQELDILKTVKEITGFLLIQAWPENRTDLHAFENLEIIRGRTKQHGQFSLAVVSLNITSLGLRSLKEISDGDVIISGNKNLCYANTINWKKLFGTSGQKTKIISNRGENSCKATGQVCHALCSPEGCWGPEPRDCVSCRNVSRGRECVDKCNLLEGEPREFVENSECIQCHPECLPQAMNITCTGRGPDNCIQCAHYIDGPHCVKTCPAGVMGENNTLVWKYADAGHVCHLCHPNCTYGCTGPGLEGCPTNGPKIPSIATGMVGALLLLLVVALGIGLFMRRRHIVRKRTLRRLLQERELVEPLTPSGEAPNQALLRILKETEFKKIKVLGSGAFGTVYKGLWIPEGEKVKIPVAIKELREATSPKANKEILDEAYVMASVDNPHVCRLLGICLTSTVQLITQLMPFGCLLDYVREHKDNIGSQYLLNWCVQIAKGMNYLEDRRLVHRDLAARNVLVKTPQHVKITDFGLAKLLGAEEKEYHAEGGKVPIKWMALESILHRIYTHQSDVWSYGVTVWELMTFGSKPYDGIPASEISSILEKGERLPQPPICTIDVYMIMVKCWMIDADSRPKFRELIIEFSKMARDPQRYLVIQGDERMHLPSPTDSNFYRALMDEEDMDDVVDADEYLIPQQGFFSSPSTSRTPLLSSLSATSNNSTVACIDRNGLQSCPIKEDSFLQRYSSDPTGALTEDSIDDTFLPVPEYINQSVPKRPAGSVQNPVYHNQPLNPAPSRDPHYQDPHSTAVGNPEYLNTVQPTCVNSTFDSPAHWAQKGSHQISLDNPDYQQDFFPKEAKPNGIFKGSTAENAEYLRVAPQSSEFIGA
T3 sequence (P06239 whole entry, species assumed, the tested form may be a part): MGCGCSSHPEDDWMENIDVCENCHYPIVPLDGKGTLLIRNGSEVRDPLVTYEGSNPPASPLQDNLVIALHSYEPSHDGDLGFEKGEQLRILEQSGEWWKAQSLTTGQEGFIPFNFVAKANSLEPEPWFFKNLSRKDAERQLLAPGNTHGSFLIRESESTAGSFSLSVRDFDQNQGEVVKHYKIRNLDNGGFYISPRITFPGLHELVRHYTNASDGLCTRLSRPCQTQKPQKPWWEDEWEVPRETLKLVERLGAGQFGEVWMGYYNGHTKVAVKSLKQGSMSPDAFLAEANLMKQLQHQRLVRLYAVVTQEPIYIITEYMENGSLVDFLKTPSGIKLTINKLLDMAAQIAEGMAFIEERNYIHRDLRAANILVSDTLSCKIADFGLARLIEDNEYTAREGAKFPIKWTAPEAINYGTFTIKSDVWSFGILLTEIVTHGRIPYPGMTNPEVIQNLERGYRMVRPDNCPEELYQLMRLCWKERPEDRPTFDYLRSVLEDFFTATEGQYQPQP
T7 sequence (P08581 25-1390): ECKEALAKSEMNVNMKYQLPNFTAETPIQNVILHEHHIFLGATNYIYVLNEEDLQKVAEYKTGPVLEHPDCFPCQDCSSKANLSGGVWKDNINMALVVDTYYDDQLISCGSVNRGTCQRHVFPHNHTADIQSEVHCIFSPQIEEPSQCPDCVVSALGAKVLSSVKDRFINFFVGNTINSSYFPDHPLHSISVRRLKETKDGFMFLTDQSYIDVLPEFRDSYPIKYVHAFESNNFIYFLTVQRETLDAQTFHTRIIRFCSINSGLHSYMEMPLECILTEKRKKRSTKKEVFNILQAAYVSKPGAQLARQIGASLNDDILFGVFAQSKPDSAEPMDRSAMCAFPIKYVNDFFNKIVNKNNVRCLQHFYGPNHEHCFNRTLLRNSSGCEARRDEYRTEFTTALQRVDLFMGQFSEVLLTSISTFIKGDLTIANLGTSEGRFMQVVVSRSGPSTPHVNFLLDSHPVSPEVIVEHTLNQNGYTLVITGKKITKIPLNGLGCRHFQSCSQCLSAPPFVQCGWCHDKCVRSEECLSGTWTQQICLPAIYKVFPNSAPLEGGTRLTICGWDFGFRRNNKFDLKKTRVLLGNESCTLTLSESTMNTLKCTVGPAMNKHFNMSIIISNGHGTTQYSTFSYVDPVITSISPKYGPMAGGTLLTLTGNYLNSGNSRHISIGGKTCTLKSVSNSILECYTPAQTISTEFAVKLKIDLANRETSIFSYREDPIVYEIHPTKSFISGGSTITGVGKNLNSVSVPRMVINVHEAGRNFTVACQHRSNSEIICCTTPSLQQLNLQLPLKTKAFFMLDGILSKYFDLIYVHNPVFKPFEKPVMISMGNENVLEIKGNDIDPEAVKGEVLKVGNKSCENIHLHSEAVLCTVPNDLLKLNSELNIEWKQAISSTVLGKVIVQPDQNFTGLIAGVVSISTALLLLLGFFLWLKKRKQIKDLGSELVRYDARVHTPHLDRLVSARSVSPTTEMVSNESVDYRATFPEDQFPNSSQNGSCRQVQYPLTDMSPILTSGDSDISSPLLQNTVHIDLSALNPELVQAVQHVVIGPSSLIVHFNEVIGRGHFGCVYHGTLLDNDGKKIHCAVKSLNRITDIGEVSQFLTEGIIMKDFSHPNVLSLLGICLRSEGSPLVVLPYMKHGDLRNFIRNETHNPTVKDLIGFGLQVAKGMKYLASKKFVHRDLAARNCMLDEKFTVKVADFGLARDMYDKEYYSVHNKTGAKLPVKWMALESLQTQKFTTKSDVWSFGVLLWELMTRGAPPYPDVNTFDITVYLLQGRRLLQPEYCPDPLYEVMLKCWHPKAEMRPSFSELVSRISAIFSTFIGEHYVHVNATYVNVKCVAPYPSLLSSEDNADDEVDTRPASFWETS
T1 sequence (Q9Y243 whole entry, the tested form may be a part): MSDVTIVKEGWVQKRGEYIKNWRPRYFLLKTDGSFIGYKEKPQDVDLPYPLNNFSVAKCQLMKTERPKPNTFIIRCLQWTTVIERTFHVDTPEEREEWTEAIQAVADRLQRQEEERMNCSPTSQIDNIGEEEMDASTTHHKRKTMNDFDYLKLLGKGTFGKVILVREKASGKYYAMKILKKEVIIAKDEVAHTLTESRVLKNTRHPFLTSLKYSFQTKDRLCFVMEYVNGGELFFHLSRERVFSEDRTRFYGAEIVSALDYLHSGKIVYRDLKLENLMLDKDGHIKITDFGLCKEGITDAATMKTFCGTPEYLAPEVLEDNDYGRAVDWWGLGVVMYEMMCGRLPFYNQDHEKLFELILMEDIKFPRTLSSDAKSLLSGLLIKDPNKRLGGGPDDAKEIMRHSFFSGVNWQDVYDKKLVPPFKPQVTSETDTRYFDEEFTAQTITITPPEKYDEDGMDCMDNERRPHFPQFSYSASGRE

Compound: COc1cc(Nc2ncnc(Nc3cc(C(F)(F)F)ccc3F)n2)cc(OC)c1OC [Compound 618]
IC50 [1]: 7.97 to 10.2 µM
IC50 [2]: > 10.2 µM
IC50 [3]: 0.91 to 5.46 µM
IC50 [4]: 0.91 to 5.46 µM
IC50 [5]: 0.91 to 5.46 µM
IC50 [6]: < 0.91 µM
IC50 [7]: 5.46 to 7.97 µM
IC50 [8]: 5.46 to 7.97 µM
IC50 [9]: 7.97 to 10.2 µM
IC50 [10]: < 0.91 µM

Compound: COc1ccc(Nc2ncnc(N(C)c3cccc(Cl)c3)n2)cc1OC [Compound 621]
IC50 [1]: > 12.1 µM
IC50 [2]: > 12.1 µM
IC50 [3]: 1.08 to 6.45 µM
IC50 [4]: 1.08 to 6.45 µM
IC50 [5]: 1.08 to 6.45 µM
IC50 [6]: 6.45 to 9.41 µM
IC50 [7]: 1.08 to 6.45 µM
IC50 [8]: < 1.08 µM
IC50 [9]: > 12.1 µM
IC50 [10]: < 1.08 µM

Now from value to compound:

IC50 [1]: 8.59 to 11 µM
IC50 [2]: > 11 µM
IC50 [3]: 5.89 to 8.59 µM
IC50 [4]: 5.89 to 8.59 µM
IC50 [5]: > 11 µM
IC50 [6]: > 11 µM
IC50 [7]: > 11 µM
IC50 [8]: 8.59 to 11 µM
IC50 [9]: > 11 µM
IC50 [10]: 8.59 to 11 µM
Compound: COc1cc(Nc2ncnc(N[C@H]3CCCc4ccccc43)n2)cc(OC)c1OC [Compound 619]

IC50 [1]: > 11 µM
IC50 [2]: 8.59 to 11 µM
IC50 [3]: 0.982 to 5.89 µM
IC50 [4]: 8.59 to 11 µM
IC50 [5]: > 11 µM
IC50 [6]: > 11 µM
IC50 [7]: 5.89 to 8.59 µM
IC50 [8]: 8.59 to 11 µM
IC50 [9]: > 11 µM
IC50 [10]: 0.982 to 5.89 µM
Compound: COc1cc(Nc2ncnc(N[C@@H]3CCCc4ccccc43)n2)cc(OC)c1OC [Compound 620]

IC50 [1]: > 12.1 µM
IC50 [2]: > 12.1 µM
IC50 [3]: > 12.1 µM
IC50 [4]: > 12.1 µM
IC50 [5]: 9.42 to 12.1 µM
IC50 [6]: > 12.1 µM
IC50 [7]: > 12.1 µM
IC50 [8]: 6.46 to 9.42 µM
IC50 [9]: > 12.1 µM
IC50 [10]: 6.46 to 9.42 µM
Compound: CC1CCc2ccccc2N1c1ncnc(N2c3ccccc3CCC2C)n1 (centres unmarked) [Compound 622]
